From article PMC11823609, “Advancements in the fight against globally distributed OXA-48 carbapenemase: evaluating the new generation of carbapenemase inhibitors” (Antimicrobial Agents and Chemotherapy, 2025)
Where two headings read alike, the source gives them in different places.

How the values were obtained:
Assay in all cases: microbe, parasite or virus in culture
E. coli TG1 (OXA-48) = format: cell-based, Escherichia coli
Method: (§1) The MICs of each of the individual compounds (antibiotics or inhibitors) were also determined. The MICs were determined for the E. coli isogenic expressing OXA-48 (and both OXA-48 and CTX-M-14) to assess their activity against the carbapenemase; MICs were also determined for the 18 Enterobacterales clinical isolates in order to evaluate the new inhibitors against also their resistance concomitant mechanisms. The MICs were determined in triplicate experiments, and the EUCAST 13.0 clinical breakpoints were followed (http://www.eucast.org/clinical_breakpoints).
(§2) For comparative evaluation of the activity of each inhibitor alone against the carbapenemase OXA-48, all inhibitors (at 4 mg/L) were tested in the presence of a carbapenem (ertapenem, adequate substrate) and a cephalosporin (ceftazidime, poor substrate) as reporter substrates. This prevented any possible masking effect produced by the different partner antibiotics. These assays were also performed with isogenic transformants and clinical isolates.

[1] = tested on: K. pneumoniae strain 497 (MLST 11, No ESBL); format: cell-based; conditions: K. pneumoniae 497
Method: (§3) The efficacy of these new BLIs was also evaluated against 18 genetically diverse WGS-characterized collection of OXA-48-positive Enterobacterales recovered as part of the Carbapenem-resistant Enterobacterales Genome Database Project (https://genomes.cnag.cat/incredble) listed in Table S2 ([13]). Combinations of clinical isolates (five pairs of Klebsiella pneumoniae, two pairs of Enterobacter cloacae, and two pairs of E. coli) were chosen for analysis: (i) nine strains carrying ESBLs; and (ii) nine strains (genetically closer available strains) without ESBLs.
as §1, §2

[2] = tested on: E. coli strain 224 (MLST 127, No ESBL); format: cell-based; conditions: E. coli 224
Method: as §3, §1, §2

[3] = tested on: K. pneumoniae strain 413 (MLST 147, ESBL); format: cell-based
Method: as §3, §1, §2

[4] = tested on: K. pneumoniae strain 170 (MLST 307, No ESBL); format: cell-based; conditions: K. pneumoniae 170
Method: as §3, §1, §2

[5] = tested on: K. pneumoniae strain 237 (MLST 147, No ESBL); format: cell-based; conditions: K. pneumoniae 237
Method: as §3, §1, §2

[6] = tested on: K. pneumoniae strain 125 (MLST 307, ESBL); format: cell-based
Method: as §3, §1, §2

[7] = tested on: E. cloacae strain 281 (MLST 78, No ESBL); format: cell-based; conditions: E. cloacae 281
Method: as §3, §1, §2

[8] = tested on: K. pneumoniae strain 19 (MLST 11, ESBL); format: cell-based
Method: as §3, §1, §2

[9] = tested on: E. cloacae strain 272 (MLST 78, ESBL); format: cell-based
Method: as §3, §1, §2

[10] = tested on: E. coli strain 264 (MLST 131, No ESBL); format: cell-based; conditions: E. coli 264
Method: as §3, §1, §2

[11] = tested on: E. coli strain 177 (MLST 131, ESBL); format: cell-based
Method: as §3, §1, §2

[12] = tested on: K. pneumoniae strain 23 (MLST 392, ESBL); format: cell-based
Method: as §3, §1, §2

[13] = tested on: K. pneumoniae strain 71 (MLST 15, No ESBL); format: cell-based; conditions: K. pneumoniae 71
Method: as §3, §1, §2

[14] = tested on: K. pneumoniae strain 238 (MLST 15, ESBL); format: cell-based
Method: as §3, §1, §2

[15] = tested on: E. coli strain 103 (MLST 10, ESBL); format: cell-based
Method: as §3, §1, §2

[16] = tested on: E. cloacae strain 231 (MLST 171, No ESBL); format: cell-based; conditions: E. cloacae 231
Method: as §3, §1, §2

[17] = tested on: K. pneumoniae strain 194 (MLST 392, No ESBL); format: cell-based; conditions: K. pneumoniae 194
Method: as §3, §1, §2

[18] = tested on: E. cloacae strain 235 (MLST 171, ESBL); format: cell-based
Method: as §3, §1, §2

[19] = tested on: E. coli HB4 ΔompC/F (OXA-48); format: cell-based, Escherichia coli
Text: (§4) The E. coli HB4 strain was used to gain a more complete perspective, by evaluating the involvement in resistance of a low permeability background with the carbapenemase OXA-48, as well as coproduction of an ESBL and the carbapenemase; thus, the ESBL CTX-M-14 and OXA-48 were cloned together and separately into E. coli HB4. The characteristics of these strains and transformants are summarized in Table S1, and the cloning procedures are outlined in the supplemental methods.
as §1, §2

[20] = tested on: E. coli HB4 ΔompC/F (CTX-M-14 + OXA-48); format: cell-based, Escherichia coli
Text: as §4, §1, §2

E. coli HB4 ΔompC/F = format: cell-based, Escherichia coli
Text: as §4, §1, §2

[21] = Klebsiella pneumoniae, β-lactamase inhibitor alone, read-out: MIC
[22] = Escherichia coli, β-lactamase inhibitor alone, read-out: MIC
[23] = Enterobacter cloacae, β-lactamase inhibitor alone, read-out: MIC
[24] = ceftazidime alone or with BLI at 4 mg/L
[25] = Klebsiella pneumoniae, BL alone or BL/BLI: AVI, REL, TAN, DUR 4 mg/L, VAB, XER 8 mg/L, ZID, NAC 1:1, read-out: MIC
[26] = Escherichia coli, BL alone or BL/BLI: AVI, REL, TAN, DUR 4 mg/L, VAB, XER 8 mg/L, ZID, NAC 1:1, read-out: MIC
[27] = Enterobacter cloacae, BL alone or BL/BLI: AVI, REL, TAN, DUR 4 mg/L, VAB, XER 8 mg/L, ZID, NAC 1:1, read-out: MIC

O=C(O)c1c(F)ccc2c1OB(O)[C@@H]1C[C@H]21 [Xeruborbactam, xeruborbactam]
≥ 128 µg/mL: MIC ([18]; Enterobacter cloacae)
16 µg/mL: MIC ([19]; Escherichia coli) | MIC ([20]; Escherichia coli) | MIC (E. coli HB4 ΔompC/F; Escherichia coli)
32 µg/mL: MIC (E. coli TG1 (OXA-48); Escherichia coli) | MIC [2, 22] | MIC [4, 21] | MIC ([6]; Klebsiella pneumoniae) | MIC [7, 23] | MIC ([8]; Klebsiella pneumoniae) | MIC ([9]; Enterobacter cloacae) | MIC [10, 22] | MIC ([12]; Klebsiella pneumoniae) | MIC [13, 21] | MIC [16, 23] | MIC [17, 21]
64 µg/mL: MIC [1, 21] | MIC ([3]; Klebsiella pneumoniae) | MIC [5, 21] | MIC ([11]; Escherichia coli) | MIC ([14]; Klebsiella pneumoniae) | MIC ([15]; Escherichia coli)
256 fold: decrease of ertapenem MIC with BLI ([20]; E. coli HB4 coproducing CTX-M-14 and OXA-48, BLI 4 mg/L)

NCCONC(=O)[C@@H]1CC[C@@H]2CN1C(=O)N2OS(=O)(=O)O [Nacubactam, nacubactam]
16 µg/mL: MIC [13, 21] | MIC ([14]; Klebsiella pneumoniae)
≥ 128 µg/mL: MIC [1, 21] | MIC ([3]; Klebsiella pneumoniae) | MIC ([6]; Klebsiella pneumoniae) | MIC ([8]; Klebsiella pneumoniae)
1 µg/mL: MIC [5, 21] | MIC [10, 22] | MIC [16, 23]
8 µg/mL: MIC [2, 22] | MIC ([11]; Escherichia coli) | MIC ([18]; Enterobacter cloacae)
4 µg/mL: MIC [4, 21] | MIC [7, 23] | MIC ([9]; Enterobacter cloacae)
2 µg/mL: MIC (E. coli TG1 (OXA-48); Escherichia coli) | MIC ([12]; Klebsiella pneumoniae) | MIC ([15]; Escherichia coli) | MIC [17, 21] | MIC ([19]; Escherichia coli) | MIC ([20]; Escherichia coli) | MIC (E. coli HB4 ΔompC/F; Escherichia coli)

CC(C)(O/N=C(\C(=O)N[C@@H]1C(=O)N2C(C(=O)[O-])=C(C[n+]3ccccc3)CS[C@H]12)c1csc(N)n1)C(=O)O [CAZ, ceftazidime]
4 µg/mL: MIC ([15]; E. coli 103, ceftazidime alone or with BLI at 4 mg/L) | MIC ([15]; Escherichia coli)
0.5 µg/mL: MIC [1, 24] | MIC [1, 25] | MIC [4, 24] | MIC [4, 25] | MIC [7, 24] | MIC [7, 27] | MIC [13, 24] | MIC [13, 25] | MIC [17, 24] | MIC [17, 25]
32 µg/mL: MIC ([3]; K. pneumoniae 413, ceftazidime alone or with BLI at 4 mg/L) | MIC ([3]; Klebsiella pneumoniae) | MIC ([8]; K. pneumoniae 19, ceftazidime alone or with BLI at 4 mg/L) | MIC ([8]; Klebsiella pneumoniae) | MIC ([14]; K. pneumoniae 238, ceftazidime alone or with BLI at 4 mg/L) | MIC ([14]; Klebsiella pneumoniae)
1 µg/mL: MIC [16, 24] | MIC [16, 27] | MIC ([19]; E. coli HB4 ΔompC/F (OXA-48), ceftazidime alone or with BLI at 4 mg/L) | MIC ([19]; Escherichia coli) | MIC (E. coli HB4 ΔompC/F; E. coli HB4 ΔompC/F, ceftazidime alone or with BLI at 4 mg/L) | MIC (E. coli HB4 ΔompC/F; Escherichia coli)
128 µg/mL: MIC ([11]; E. coli 177, ceftazidime alone or with BLI at 4 mg/L) | MIC ([11]; Escherichia coli) | MIC ([12]; K. pneumoniae 23, ceftazidime alone or with BLI at 4 mg/L) | MIC ([12]; Klebsiella pneumoniae) | MIC ([18]; E. cloacae 235, ceftazidime alone or with BLI at 4 mg/L) | MIC ([18]; Enterobacter cloacae)
≥ 256 µg/mL: MIC ([9]; Enterobacter cloacae)
64 µg/mL: MIC ([6]; K. pneumoniae 125, ceftazidime alone or with BLI at 4 mg/L) | MIC ([6]; Klebsiella pneumoniae)
16 µg/mL: MIC ([20]; E. coli HB4 ΔompC/F (CTX-M-14 + OXA-48), ceftazidime alone or with BLI at 4 mg/L) | MIC ([20]; Escherichia coli)
0.25 µg/mL: MIC (E. coli TG1 (OXA-48); E. coli TG1 (OXA-48), ceftazidime alone or with BLI at 4 mg/L) | MIC (E. coli TG1 (OXA-48); Escherichia coli) | MIC [2, 24] | MIC [2, 26] | MIC [5, 24] | MIC [5, 25] | MIC [10, 24] | MIC [10, 26]
≥256 µg/mL: MIC ([9]; E. cloacae 272, ceftazidime alone or with BLI at 4 mg/L)
